# From article PMC11674187, “Inhibitory Effects of Cenobamate on Multiple Human Cardiac Ion Channels and Possible Arrhythmogenic Consequences” (Biomolecules, 2024)
# “And” between values parts separate entries of the source, which are not always exact repeats. Equal entries are not always repeated.
# Tested on: Ncyte® vCardiomyocytes
# Assay: Amphotericin-perforated whole-cell recordings on hiPSC-CM (current clamp and voltage clamp)
# Format: cell-based, human
# Conditions: cenobamate 200 µM
# Protocol: Experiments were performed on HEK293T cell lines with persistent/inducible expression of different human cardiac ion channel isoforms: hNav1.5 and hKv7.1 + minK (Anaxon AG, Bern, Switzerland), hCav1.2 (α1c + β2 + α2δ1) (B’SYS GmbH, Witterswil, Switzerland), and hKv11.1 (hERG) (Cytocentrics Bioscience GmbH, Rostock, Germany). The cell lines were grown in standard conditions (37 °C, 5% CO2, 90% humidity) in DMEM:F12 medium (D8900, Sigma-Aldrich, Burlington, MA, USA) buffered with 15 mM HEPES, containing 3.15 g/L D-glucose and 0.055 g/L sodium pyruvate, supplemented with 1.2 g/L sodium bicarbonate, 10% fetal bovine serum (F2442, Sigma-Aldrich, Burlington, MA, USA), 2 mM L-glutamine (G7513, Sigma-Aldrich, Burlington, MA, USA), 1% penicillin–streptomycin (P4333, Sigma-Aldrich, Burlington, MA, USA), and with specific antibiotics for selection of transfected cells or induction of gene expression according to manufacturers’ instructions. The medium was changed every 2–3 days and the cells were passed weekly upon detachment with trypsin–EDTA solution. All cell culture media and solutions were sterile filtered with 0.22 μm polyvinylidene fluoride filters. Ncyte® vCardiomyocytes (Ncardia, Leiden, The Netherlands) were cultured in 24-well plates precoated with bovine fibronectin, following manufacturer’s instructions. For the experiments, cardiomyocytes were detached as described previously and plated on ϕ 10 mm glass coverslips, like the other cell lines.
# Experiments on Ncyte® vCardiomyocytes were performed via an amphotericin-perforated whole-cell approach, filling the pipettes with solution containing amphotericin B 300 µg/mL except for a small region near the tip that contained amphotericin-free solution. The voltage-clamp and current-clamp protocols were similar to those used in our previous studies; the following protocols were recorded in sequence before and at 3 min after application of cenobamate in the bath to a final concentration of 200 µM: • - Nav standard protocol: holding −90 mV, depolarizing step at −10 mV lasting 40 ms; • - Cav-Nav separation protocol: holding −80 mV, first step at −20 mV 200 ms, intermediate step at −40 mV 100 ms, second step at −50 mV to +50 mV 200 ms, in 10 mV increments in consecutive sweeps; • - hERG standard protocol: holding −70 mV, a brief preliminary step at −50 mV 100 ms, first step at +40 mV 2000 ms, second step at −120 mV/−50 mV 2000 ms (in consecutive sweeps); • - A double voltage ramp protocol: holding −80 mV, first ramp from −120 mV to +80 mV in 2000 ms, second ramp from +80 mV back to −120 mV in 2000 ms, sweeps repeated at 10 s intervals; • - A current-clamp protocol with external pacing: 3 current stimuli of 2 nA amplitude, duration 0.5 ms (up to 2.5 ms in some experiments) applied at 3 s intervals, first stimulus at 500 ms after start of recording; in cells with spontaneous pace-making, this phenomenon was suppressed by applying a steady hyperpolarizing current of −10 pA or −20 pA. […]
structure (smiles),measurement,setting,value
NC(=O)O[C@@H](Cn1ncnn1)c1ccccc1Cl [cenobamate],"%ICaL peak change, mean (Table S8)",hiPSC-CM,35.16%
same,"%INa peak change, mean (Table S8)",hiPSC-CM,27.43%
same,"%If change, mean (Table S8)",hiPSC-CM,19.89%
same,"APD90 ceno, mean (Table S8)",initial mean 1212.99 ms,619.83 ms
same,average APD90 shortening (%APD90 change),"mean (SD), n = 5",28.55% and 28.6 ± 13.5%
